Experimental data taken from patent publication US10681909B2, “Herbicidal triazoles” (FMC Corporation, priority 2014, dated 2020).

Columns and labels:
foxtail, giant [1] = assay: Test A postemergence; type: in vivo, Setaria faberii; details: 0 to 100 scale (0 no effect, 100 complete control), approx. 10 d
Summary of the method: (§1)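 Herbicidal response was scored on plants treated pre- or postemergence with surfactant-containing, non-phytotoxic solvent formulations. Preemergence meant a directed spray onto soil (loam–sand) holding sown seed; postemergence plants were at one to two leaves.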

waterhemp = assay: Test C postemergence; type: in vivo, Amaranthus rudis
Summary of the method: (§2)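 Surfactant-containing, non-phytotoxic solvent formulations of each compound were applied either preemergence to seeds in a loam soil–sand blend or postemergence to plants 2 to 18 cm tall (1- to 4-leaf stage). Postemergence plants were grown in peat moss–vermiculite medium.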

kochia = assay: Test C postemergence; type: in vivo, Kochia scoparia
Summary of the method: as §2

barnyardgrass [2] = assay: Test C postemergence; type: in vivo, Echinochloa crus-galli
Summary of the method: as §2

pigweed [3] = assay: Test A postemergence; type: in vivo, Amaranthus retroflexus; details: 0 to 100 scale (0 no effect, 100 complete control), approx. 10 d
Summary of the method: as §1

blackgrass = assay: Test C postemergence; type: in vivo, Alopecurus myosuroides
Summary of the method: as §2

lambsquarters = assay: Test C postemergence; type: in vivo, Chenopodium album
Summary of the method: as §2

crabgrass, large = assay: Test C postemergence; type: in vivo, Digitaria sanguinalis
Summary of the method: as §2

ragweed = assay: Test C postemergence; type: in vivo, Ambrosia elatior
Summary of the method: as §2

wheat = assay: Test A postemergence; type: in vivo, Triticum aestivum; details: 0 to 100 scale (0 no effect, 100 complete control), approx. 10 d
Summary of the method: as §1

galium = assay: Test C postemergence; type: in vivo, Galium aparine
Summary of the method: as §2

corn = assay: Test C postemergence; type: in vivo, Zea mays
Summary of the method: as §2

barnyardgrass [4] = assay: Test A preemergence; type: in vivo, Echinochloa crus-galli; details: 0 to 100 scale (0 no effect, 100 complete control)
Summary of the method: as §1

velvetleaf = assay: Test C postemergence; type: in vivo, Abutilon theophrasti
Summary of the method: as §2

pigweed [5] = assay: Test C postemergence; type: in vivo, Amaranthus retroflexus
Summary of the method: as §2

barnyardgrass [6] = assay: Test B flooded paddy test; type: in vivo, Echinochloa crus-galli; details: 250 g ai/ha, applied to paddy water at 2-leaf stage, visual rating after 13 to 15 d, scale 0 (no effect) to 100 (complete control)
Summary of the method: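 Pots were flooded to 3 cm above the soil at treatment, and compounds were applied directly into the paddy water. That depth was held throughout. After 13 to 15 d in a greenhouse, plants were rated visually against untreated controls.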

foxtail, giant [7] = assay: Test C postemergence; type: in vivo, Setaria faberii
Summary of the method: as §2

oilseed rape = assay: Test C postemergence; type: in vivo, Brassica napus
Summary of the method: as §2

johnsongrass = assay: Test C postemergence; type: in vivo, Sorghum halepense
Summary of the method: as §2

COc1nc(-c2ccc(Cl)cc2)nn1Cc1ccnc(C(F)(F)F)c1 [Compound 28]
30: Plant response rating (scale of 0 to 100 where 0 is no effect and 100 is complete control) (crabgrass, large; 250 g ai/ha) | Plant response rating, Barnyardgrass (barnyardgrass [4]; 125 g ai/ha)
65: Plant response rating (scale of 0 to 100 where 0 is no effect and 100 is complete control) (velvetleaf; 125 g ai/ha)
10: Plant response rating (scale of 0 to 100 where 0 is no effect and 100 is complete control) (blackgrass; 31 g ai/ha) | Plant response rating (scale of 0 to 100 where 0 is no effect and 100 is complete control) (crabgrass, large; 31 g ai/ha) | Plant response rating (scale of 0 to 100 where 0 is no effect and 100 is complete control) (crabgrass, large; 62 g ai/ha) | Plant response rating (scale of 0 to 100 where 0 is no effect and 100 is complete control) (crabgrass, large; 125 g ai/ha) | Plant response rating, Wheat (wheat; 500 g ai/ha) | Plant response rating (scale of 0 to 100 where 0 is no effect and 100 is complete control) (corn; 62 g ai/ha) | Plant response rating (scale of 0 to 100 where 0 is no effect and 100 is complete control) (foxtail, giant [7]; 62 g ai/ha) | Plant response rating (scale of 0 to 100 where 0 is no effect and 100 is complete control) (foxtail, giant [7]; 125 g ai/ha) | Plant response rating (scale of 0 to 100 where 0 is no effect and 100 is complete control) (foxtail, giant [7]; 250 g ai/ha) | Plant response rating (scale of 0 to 100 where 0 is no effect and 100 is complete control) (johnsongrass; 125 g ai/ha)
85: Plant response rating (scale of 0 to 100 where 0 is no effect and 100 is complete control) (galium; 31 g ai/ha) | Plant response rating (scale of 0 to 100 where 0 is no effect and 100 is complete control) (johnsongrass; 250 g ai/ha)
0: Plant response rating, Wheat (wheat; 125 g ai/ha)
20: Plant response rating, Barnyardgrass, Flood (barnyardgrass [6])
75: Plant response rating (scale of 0 to 100 where 0 is no effect and 100 is complete control) (ragweed; 125 g ai/ha) | Plant response rating (scale of 0 to 100 where 0 is no effect and 100 is complete control) (ragweed; 250 g ai/ha)
100: Plant response rating (scale of 0 to 100 where 0 is no effect and 100 is complete control) (kochia; 62 g ai/ha) | Plant response rating (scale of 0 to 100 where 0 is no effect and 100 is complete control) (kochia; 125 g ai/ha) | Plant response rating (scale of 0 to 100 where 0 is no effect and 100 is complete control) (kochia; 250 g ai/ha) | Plant response rating, Pigweed (pigweed [3]; 125 g ai/ha) | Plant response rating, Pigweed (pigweed [3]; 500 g ai/ha) | Plant response rating (scale of 0 to 100 where 0 is no effect and 100 is complete control) (lambsquarters; 31 g ai/ha) | Plant response rating (scale of 0 to 100 where 0 is no effect and 100 is complete control) (pigweed [5]; 250 g ai/ha)
70: Plant response rating, Foxtail, Giant (foxtail, giant [1]; 125 g ai/ha) | Plant response rating (scale of 0 to 100 where 0 is no effect and 100 is complete control) (oilseed rape; Oilseed Rape, 125 g ai/ha)
55: Plant response rating (scale of 0 to 100 where 0 is no effect and 100 is complete control) (oilseed rape; Oilseed Rape, 62 g ai/ha)
95: Plant response rating (scale of 0 to 100 where 0 is no effect and 100 is complete control) (waterhemp; 62 g ai/ha) | Plant response rating (scale of 0 to 100 where 0 is no effect and 100 is complete control) (waterhemp; 125 g ai/ha) | Plant response rating (scale of 0 to 100 where 0 is no effect and 100 is complete control) (kochia; 31 g ai/ha) | Plant response rating (scale of 0 to 100 where 0 is no effect and 100 is complete control) (galium; 250 g ai/ha) | Plant response rating (scale of 0 to 100 where 0 is no effect and 100 is complete control) (pigweed [5]; 31 g ai/ha) | Plant response rating (scale of 0 to 100 where 0 is no effect and 100 is complete control) (pigweed [5]; 62 g ai/ha) | Plant response rating (scale of 0 to 100 where 0 is no effect and 100 is complete control) (oilseed rape; Oilsee Rape, 250 g ai/ha)
98: Plant response rating (scale of 0 to 100 where 0 is no effect and 100 is complete control) (waterhemp; 31 g ai/ha) | Plant response rating (scale of 0 to 100 where 0 is no effect and 100 is complete control) (waterhemp; 250 g ai/ha) | Plant response rating (scale of 0 to 100 where 0 is no effect and 100 is complete control) (lambsquarters; 125 g ai/ha) | Plant response rating (scale of 0 to 100 where 0 is no effect and 100 is complete control) (lambsquarters; 250 g ai/ha) | Plant response rating (scale of 0 to 100 where 0 is no effect and 100 is complete control) (pigweed [5]; 125 g ai/ha)
15: Plant response rating (scale of 0 to 100 where 0 is no effect and 100 is complete control) (barnyardgrass [2]; 31 g ai/ha) | Plant response rating (scale of 0 to 100 where 0 is no effect and 100 is complete control) (barnyardgrass [2]; 62 g ai/ha) | Plant response rating (scale of 0 to 100 where 0 is no effect and 100 is complete control) (barnyardgrass [2]; 125 g ai/ha) | Plant response rating (scale of 0 to 100 where 0 is no effect and 100 is complete control) (blackgrass; 62 g ai/ha) | Plant response rating (scale of 0 to 100 where 0 is no effect and 100 is complete control) (blackgrass; 125 g ai/ha) | Plant response rating (scale of 0 to 100 where 0 is no effect and 100 is complete control) (corn; 125 g ai/ha) | Plant response rating (scale of 0 to 100 where 0 is no effect and 100 is complete control) (corn; 250 g ai/ha) | Plant response rating (scale of 0 to 100 where 0 is no effect and 100 is complete control) (foxtail, giant [7]; 31 g ai/ha)
5: Plant response rating (scale of 0 to 100 where 0 is no effect and 100 is complete control) (corn; 31 g ai/ha) | Plant response rating (scale of 0 to 100 where 0 is no effect and 100 is complete control) (johnsongrass; 62 g ai/ha)
80: Plant response rating (scale of 0 to 100 where 0 is no effect and 100 is complete control) (lambsquarters; 62 g ai/ha) | Plant response rating (scale of 0 to 100 where 0 is no effect and 100 is complete control) (velvetleaf; 250 g ai/ha)
60: Plant response rating (scale of 0 to 100 where 0 is no effect and 100 is complete control) (velvetleaf; 31 g ai/ha) | Plant response rating (scale of 0 to 100 where 0 is no effect and 100 is complete control) (velvetleaf; 62 g ai/ha)
90: Plant response rating, Foxtail, Giant (foxtail, giant [1]; 500 g ai/ha) | Plant response rating (scale of 0 to 100 where 0 is no effect and 100 is complete control) (galium; 62 g ai/ha) | Plant response rating (scale of 0 to 100 where 0 is no effect and 100 is complete control) (galium; 125 g ai/ha) | Plant response rating, Barnyardgrass (barnyardgrass [4]; 500 g ai/ha, approx. 10 d)
25: Plant response rating (scale of 0 to 100 where 0 is no effect and 100 is complete control) (barnyardgrass [2]; 250 g ai/ha) | Plant response rating (scale of 0 to 100 where 0 is no effect and 100 is complete control) (blackgrass; 250 g ai/ha) | Plant response rating (scale of 0 to 100 where 0 is no effect and 100 is complete control) (ragweed; 31 g ai/ha) | Plant response rating (scale of 0 to 100 where 0 is no effect and 100 is complete control) (ragweed; 62 g ai/ha) | Plant response rating (scale of 0 to 100 where 0 is no effect and 100 is complete control) (oilseed rape; Oilseed Rape, 31 g ai/ha)
